# Experimental data reported in US10550080B2 (BRISTOL-MYERS SQUIBB COMPANY, priority 2016, dated 2020).
# Columns and labels:
# NaV1.7 = NaV1.7 (Homo sapiens (Human), UniProt Q15858); assay: Automated electrophysiology, IonWorks Barracuda population patch clamp, NaV1.7 current (inactivated-state protocol); type: cell-based; settings: HEK 293 cells expressing NaV1.7; 600 sec compound incubation; read-out: NaV1.7 Barra IC50
# Procedure: (§1) Automated Electrophysiology: Ion Works Barracuda population patch clamp (PPC). PPC measurements were performed using an IonWorks Barracuda instrument (Molecular Devices Corporation, Union City, Calif.) using either PatchPlate™ PPC substrates (Molecular Devices Corporation) with 64 apertures per well. The ability to average currents from 64 recordings from each well greatly improves data consistency and recording success rates in the measurement of NaV1.7 mediated ionic currents. Calculated leak current was digitally subtracted from the total cell NaV1.7 current for each sample point acquired.
# (§2) NaV1.7 currents were elicited by a voltage clamp protocol designed to bias the NaV1.7 channels to their inactivated state as follows. From holding potential of −60 mV cells were briefly hyperpolarized to −100 mV for 1.25 sec, then stepped to −20 mV for 20 sec to inactivate the channels. This was followed by a relatively brief hyperpolarization to −100 mv for 300 ms, then a 20 msec test pulse to −20 mV to elicit the NaV1.7 current used to measure the pharmacology of all test compounds. Compounds were incubated for 600 sec between the pre- and post-compound reads. The external recording solution used was (in mM) 137 NaCl, 4 KCl, 1 MgCl2, 1.8 CaCl2, 10 Hepes, 10 glucose, pH to 7.4 with NaOH, and the internal solution used was (in mM) 100 K-gluconate, 40 KCl, 3.2 zMgCl2, 5 EGTA, 10 HEPES pH to 7.2 with KOH. The same solutions were used to record NaV1.5 currents, with the following voltage clamp protocol. NaV1.5 currents were elicited by a voltage clamp protocol designed to bias the NaV1.5 channels to their inactivated state as follows. From holding potential of −40 mV cells were briefly hyperpolarized to −100 mV for 300 ms, then stepped to −10 mV for 20 sec to inactivate the channels. This was followed by a relatively brief hyperpolarization to −100 mv for 30 ms, then a 20 msec test pulse to −10 mV to elicit the NaV1.5 current used to measure the pharmacology of all test compounds.
# (§3) HEK 293 cells expressing NaV1.7 and NaV1.5 channels, were used (Essen Biosciences, Ann Arbor, Mich.). Cells were cultured in T-175 flasks and passaged every 2 to 3 days at 1:3 to 1:6 seeding density dilutions. Cells were grown to 70% to 90% confluence in a flask and removed from the incubator (37° C., 5% CO2) 1 to 3 days after plating. Growth medium was aspirated from the culture flasks. Cells were gently rinsed with 10 ml of PBS (Catalog number: 14190144, Gibco) to remove residual media. Next a total of 2 mL TrypLE (Gibco) solution was added, and the flasks containing cells were sat for 3 min at RT, after which, the cells became visibly rounded and were easily dislodged from the bottom of the flask with a few brief taps on a solid surface. A total of 8 mL of media was added to the flask to inactivate the TrypLE, and the mixture was centrifuged at 910 rpm for 4 min. The cell supernatant was decanted, and the cell pellets were resuspended in 5-6 mL of external solution followed by gentle triturations using a 10 ml pipette, and transferred to a 15 ml conical tube and immediately brought to the IW Barracuda instrument.
# (§4) Peak membrane currents were analyzed with IW Barracuda software and exported to Excel for further analysis. Concentration response curve fitting was performed with BMS in-house software. IC50 values were obtained by fits of the Hill equation to the average percent inhibition data plotted versus compound concentration. […] Results are reported in Table 1 (NaV1.7 Barra IC50 in nM and NaV1.5 Barra IC50 in nM).
# hNaV1.7 = hNaV1.7 (Homo sapiens (Human), UniProt Q15858); assay: Ligand Binding Assay (LBA), radioligand displacement on hNaV1.7 HEK293 cell membranes; settings: 0.5 nM [3H] radioligand, 24 hours at room temperature; read-out: NaV1.7 LBA IC50
# hNaV1.7, sequence (Q15858 whole entry): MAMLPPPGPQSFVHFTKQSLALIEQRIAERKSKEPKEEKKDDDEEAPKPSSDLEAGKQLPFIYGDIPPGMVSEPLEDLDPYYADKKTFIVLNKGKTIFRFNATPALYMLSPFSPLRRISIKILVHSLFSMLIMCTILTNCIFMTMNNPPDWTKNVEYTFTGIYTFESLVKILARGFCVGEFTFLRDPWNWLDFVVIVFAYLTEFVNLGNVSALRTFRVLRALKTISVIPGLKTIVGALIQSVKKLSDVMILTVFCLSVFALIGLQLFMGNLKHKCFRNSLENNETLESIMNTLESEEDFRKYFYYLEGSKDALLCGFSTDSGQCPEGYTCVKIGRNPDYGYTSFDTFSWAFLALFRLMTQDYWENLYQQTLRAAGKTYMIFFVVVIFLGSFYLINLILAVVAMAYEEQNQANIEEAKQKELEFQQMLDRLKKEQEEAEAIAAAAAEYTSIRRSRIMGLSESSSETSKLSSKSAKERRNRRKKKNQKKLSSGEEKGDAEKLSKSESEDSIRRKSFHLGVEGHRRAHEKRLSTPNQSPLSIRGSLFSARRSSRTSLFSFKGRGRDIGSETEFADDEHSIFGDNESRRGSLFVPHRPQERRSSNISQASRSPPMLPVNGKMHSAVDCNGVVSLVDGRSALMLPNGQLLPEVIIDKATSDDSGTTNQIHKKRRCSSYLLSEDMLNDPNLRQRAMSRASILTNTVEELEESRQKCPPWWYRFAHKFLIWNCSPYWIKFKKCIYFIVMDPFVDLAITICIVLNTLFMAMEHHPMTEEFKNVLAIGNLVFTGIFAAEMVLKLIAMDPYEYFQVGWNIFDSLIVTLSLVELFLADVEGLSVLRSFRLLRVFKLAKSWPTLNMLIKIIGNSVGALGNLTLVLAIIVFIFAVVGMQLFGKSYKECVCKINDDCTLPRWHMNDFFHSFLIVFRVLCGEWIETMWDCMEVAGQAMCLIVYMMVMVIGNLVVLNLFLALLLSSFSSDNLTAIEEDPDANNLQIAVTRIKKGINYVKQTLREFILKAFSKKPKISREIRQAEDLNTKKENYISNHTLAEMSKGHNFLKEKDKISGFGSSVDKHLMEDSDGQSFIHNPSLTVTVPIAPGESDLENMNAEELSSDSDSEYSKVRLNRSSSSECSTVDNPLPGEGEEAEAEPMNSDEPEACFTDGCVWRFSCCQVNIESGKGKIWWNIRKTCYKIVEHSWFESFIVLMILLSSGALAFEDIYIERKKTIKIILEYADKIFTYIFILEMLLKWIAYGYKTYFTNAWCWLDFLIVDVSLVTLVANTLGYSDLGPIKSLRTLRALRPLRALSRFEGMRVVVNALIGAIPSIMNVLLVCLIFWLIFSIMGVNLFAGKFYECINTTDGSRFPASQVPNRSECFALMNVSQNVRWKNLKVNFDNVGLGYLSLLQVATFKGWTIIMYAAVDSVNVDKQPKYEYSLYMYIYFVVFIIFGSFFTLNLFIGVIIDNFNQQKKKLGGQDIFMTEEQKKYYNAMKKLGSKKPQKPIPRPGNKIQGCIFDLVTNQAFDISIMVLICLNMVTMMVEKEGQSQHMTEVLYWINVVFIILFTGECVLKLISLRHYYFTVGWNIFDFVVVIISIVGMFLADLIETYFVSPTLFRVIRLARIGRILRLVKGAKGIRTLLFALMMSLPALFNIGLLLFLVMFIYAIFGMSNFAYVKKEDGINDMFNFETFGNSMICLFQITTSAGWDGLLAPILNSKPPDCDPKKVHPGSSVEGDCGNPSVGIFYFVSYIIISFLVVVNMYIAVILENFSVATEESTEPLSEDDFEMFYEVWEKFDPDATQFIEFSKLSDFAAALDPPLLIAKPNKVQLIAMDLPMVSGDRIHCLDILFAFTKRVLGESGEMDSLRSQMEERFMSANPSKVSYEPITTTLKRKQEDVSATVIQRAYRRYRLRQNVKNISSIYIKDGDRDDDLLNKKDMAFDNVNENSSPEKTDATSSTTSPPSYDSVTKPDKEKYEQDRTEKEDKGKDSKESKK
# Procedure: Ligand Binding Assay (LBA): hNaV1.7 binding affinities were determined with a filtration binding assay using purified membranes from HEK293 cells stably expressing hNaV1.7. HEK293 cells from a 10-stack cell culture flask (approximately 10^10 cells) were dissociated, frozen, and stored at −80° C. To prepare membranes, the frozen cell pellet was thawed and suspended in 6 ml hypotonic lysis buffer (50 mM HEPES, 0.1% mammalian protease inhibitor cocktail). 1 ml of resuspended cells was added to an additional 6 ml of lysis buffer and homogenized with 30 strokes of a tight pestle in a glass homogenizer. Homogenate was centrifuged at 1000×g for 10 minutes at 4° C. and the resulting supernatant was further centrifuged at 38,500×g for 60 minutes at 4° C. The resulting pellet was resuspended in binding buffer (50 mM HEPES, 130 mM NaCl, 5.4 mM KCl, 0.8 mM MgCl2, 5 mM glucose, pH 7.4) and needle homogenized with a 25 gauge needle. Protein concentration was determined with a BCA protein assay. Purified membranes were aliquoted, flash frozen in an ethyl alcohol dry ice bath, and stored at −80° C. To measure displacement of a radiolabeled ligand, 50 μg of purified hNaV1.7 HEK cell membranes were incubated with test compounds (eight concentrations, in duplicate) and 0.5 nM [3H] labeled radioligand in a 96 well plate for 24 hours at room temperature on a shaker. The total binding reaction volume was 250 μl, consisting of 200 μl purified hNaV1.7 HEK cell membranes, 25 μl test compound, and 25 μl radioligand. Non-specific binding was defined by 20 μM of a reference hNaV1.7 inhibitor. Binding reactions were terminated by filtration through GF/B filters presoaked in 0.5% polyethyleneamine. Filters were washed 5 times with 2 ml each of 4′C wash buffer (50 mM Tris-HCl, pH 7.4 at 4° C.). Bound radioactivity captured on the filters was counted on a liquid scintillation counter. Specific binding, expressed as % inhibition, was fit with Graphpad Prism software to determine binding IC50 values. Results are reported in Table 1 (NaV1.7 LBA IC50 in nM).
# NaV1.5 = NaV1.5 (Homo sapiens (Human), UniProt Q14524); assay: Automated electrophysiology, IonWorks Barracuda population patch clamp, NaV1.5 current (inactivated-state protocol); type: cell-based; settings: HEK 293 cells expressing NaV1.5; read-out: NaV1.5 Barra IC50
# NaV1.5, sequence (Q14524 whole entry): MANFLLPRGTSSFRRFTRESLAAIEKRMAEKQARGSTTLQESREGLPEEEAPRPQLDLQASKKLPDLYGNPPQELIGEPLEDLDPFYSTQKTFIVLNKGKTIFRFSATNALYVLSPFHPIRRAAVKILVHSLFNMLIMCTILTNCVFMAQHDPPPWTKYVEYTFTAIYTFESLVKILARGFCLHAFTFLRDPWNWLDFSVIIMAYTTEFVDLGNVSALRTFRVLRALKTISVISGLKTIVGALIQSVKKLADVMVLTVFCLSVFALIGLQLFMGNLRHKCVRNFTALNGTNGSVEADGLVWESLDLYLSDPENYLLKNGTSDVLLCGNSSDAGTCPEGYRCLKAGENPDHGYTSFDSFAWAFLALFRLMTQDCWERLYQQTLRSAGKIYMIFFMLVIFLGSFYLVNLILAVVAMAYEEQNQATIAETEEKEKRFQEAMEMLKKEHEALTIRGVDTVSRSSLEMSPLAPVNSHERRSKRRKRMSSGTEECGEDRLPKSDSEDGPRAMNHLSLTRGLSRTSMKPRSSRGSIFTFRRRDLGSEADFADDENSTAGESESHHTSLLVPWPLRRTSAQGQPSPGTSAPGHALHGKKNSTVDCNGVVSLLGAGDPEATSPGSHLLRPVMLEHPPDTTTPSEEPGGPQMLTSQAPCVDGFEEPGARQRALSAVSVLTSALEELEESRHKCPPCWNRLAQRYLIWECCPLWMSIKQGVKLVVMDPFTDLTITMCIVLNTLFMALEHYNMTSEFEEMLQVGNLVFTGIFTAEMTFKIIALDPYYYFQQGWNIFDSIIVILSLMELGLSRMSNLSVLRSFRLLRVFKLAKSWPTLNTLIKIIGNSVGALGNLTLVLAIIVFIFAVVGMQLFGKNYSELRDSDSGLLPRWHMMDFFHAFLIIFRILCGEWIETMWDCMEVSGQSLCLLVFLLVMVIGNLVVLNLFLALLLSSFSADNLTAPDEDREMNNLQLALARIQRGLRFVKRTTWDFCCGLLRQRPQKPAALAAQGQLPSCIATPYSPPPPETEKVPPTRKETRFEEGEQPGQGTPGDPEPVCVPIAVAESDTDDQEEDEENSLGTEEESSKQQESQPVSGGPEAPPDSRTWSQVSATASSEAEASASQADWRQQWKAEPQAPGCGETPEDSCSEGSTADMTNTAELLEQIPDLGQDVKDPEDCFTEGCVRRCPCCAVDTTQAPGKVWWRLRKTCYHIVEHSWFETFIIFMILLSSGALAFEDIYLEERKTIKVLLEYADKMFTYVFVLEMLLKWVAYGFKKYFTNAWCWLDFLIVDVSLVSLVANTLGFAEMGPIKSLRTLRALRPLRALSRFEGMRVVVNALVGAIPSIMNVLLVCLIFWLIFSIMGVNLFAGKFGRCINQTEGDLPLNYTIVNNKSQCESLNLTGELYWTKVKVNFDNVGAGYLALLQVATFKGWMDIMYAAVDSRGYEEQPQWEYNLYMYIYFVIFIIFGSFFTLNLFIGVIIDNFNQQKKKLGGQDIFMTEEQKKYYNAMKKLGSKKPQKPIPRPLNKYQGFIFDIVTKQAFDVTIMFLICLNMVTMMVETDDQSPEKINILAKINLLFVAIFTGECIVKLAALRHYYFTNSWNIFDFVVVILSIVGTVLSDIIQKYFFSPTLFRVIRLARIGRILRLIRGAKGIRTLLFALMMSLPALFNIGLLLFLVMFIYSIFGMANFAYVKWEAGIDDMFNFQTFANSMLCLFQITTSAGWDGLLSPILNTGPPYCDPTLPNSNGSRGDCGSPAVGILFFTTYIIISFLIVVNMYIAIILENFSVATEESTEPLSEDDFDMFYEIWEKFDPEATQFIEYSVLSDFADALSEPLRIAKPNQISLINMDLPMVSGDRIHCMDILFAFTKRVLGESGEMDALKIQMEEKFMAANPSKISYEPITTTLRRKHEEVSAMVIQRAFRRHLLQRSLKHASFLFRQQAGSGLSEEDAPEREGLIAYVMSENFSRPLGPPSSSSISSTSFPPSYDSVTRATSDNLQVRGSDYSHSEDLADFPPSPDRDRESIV
# Procedure: as §1, §2, §3, §4
# NaV1.7, sequence (Q15858 whole entry): as the sequence (Q15858 whole entry) above
Structure (SMILES),IC50 (NaV1.7) [µM],IC50 (hNaV1.7) [µM],IC50 (NaV1.5) [µM]
"CC(C)c1cccc(-c2cn(C)c3cc(C(=O)NS(C)(=O)=O)ccc23)c1 [Example 16, 3-(3-Isopropylphenyl)-1-methyl-N-(methylsulfonyl)-1H-indole-6-carboxamide]",0.427,0.217,> 30
"CCc1cccc(-c2cn(C)c3cc(C(=O)NS(C)(=O)=O)ccc23)c1 [Example 17, 3-(3-Ethylphenyl)-1-methyl-N-(methylsulfonyl)-1H-indole-6-carboxamide]",0.22,0.44,> 30
"Cn1cc(-c2ccc(C(F)(F)F)cc2)c2ccc(C(=O)NS(=O)(=O)C3CC3)cc21 [Example 18, N-(cyclopropylsulfonyl)-1-methyl-3-(4-(trifluoromethyl)phenyl)-1H-indole-6-carboxamide]",0.109,0.077,8.72
"Cn1cc(-c2ccc(C(F)(F)F)cc2)c2ccc(C(=O)NS(=O)(=O)C(F)(F)F)cc21 [Example 19, 1-Methyl-3-(4-(trifluoromethyl)phenyl)-N-((trifluoromethyl)sulfonyl)-1H-indole-6-carboxamide]",0.812,1.08,7.48
"Cn1cc(-c2ccc(C(F)(F)F)cc2)c2ccc(C(=O)NS(=O)(=O)c3cccs3)cc21 [Example 20, 1-Methyl-N-(thiophen-2-ylsulfonyl)-3-(4-(trifluoromethyl)phenyl)-1H-indole-6-carboxamide]",0.419,0.361,3.86
"Cn1cc(-c2ccc(C(F)(F)F)cc2)c2ccc(C(=O)NS(=O)(=O)c3ccc(F)c(F)c3)cc21 [Example 21, N-((3,4-difluorophenyl)sulfonyl)-1-methyl-3-(4-(trifluoromethyl)phenyl)-1H-indole-6-carboxamide]",> 30,> 30,18.1
"CC(C)COc1ccc(-c2cn(C)c3cc(C(=O)NS(C)(=O)=O)ccc23)cn1 [Example 23, 3-(6-Isobutoxypyridin-3-yl)-1-methyl-N-(methylsulfonyl)-1H-indole-6-carboxamide]",0.183,0.468,> 30
"CC(C)COc1ncc(-c2cn(C)c3cc(C(=O)NS(=O)(=O)C4CC4)ccc23)cc1Cl [Example 24, 3-(5-Chloro-6-isobutoxypyridin-3-yl)-N-(cyclopropylsulfonyl)-1-methyl-1H-indole-6-carboxamide]",0.294,0.022,12
"CC(C)COc1ncc(-c2cn(C(C)C)c3cc(C(=O)NS(C)(=O)=O)ccc23)cc1Cl [Example 29, 3-(5-Chloro-6-isobutoxypyridin-3-yl)-1-isopropyl-N-(methylsulfonyl)-1H-indole-6-carboxamide]",0.703,0.089,1.49
"Cn1cc(-c2ccc(C(F)F)cc2)c2ccc(C(=O)NS(C)(=O)=O)cc21 [Example 30, 3-(4-(Difluoromethyl)phenyl)-1-methyl-N-(methylsulfonyl)-1H-indole-6-carboxamide]",0.262,1.01,> 30
"Cn1cc(-c2ccc(C(F)F)cc2)c2ccc(C(=O)NS(=O)(=O)C3CC3)cc21 [Example 31, N-(cyclopropylsulfonyl)-3-(4-(difluoromethyl)phenyl)-1-methyl-1H-indole-6-carboxamide]",0.069,0.321,> 30
"Cn1cc(-c2cnc(OCC3CC3)c(Cl)c2)c2ccc(C(=O)NS(C)(=O)=O)cc21 [Example 34, 3-(5-Chloro-6-(cyclopropylmethoxy)pyridin-3-yl)-1-methyl-N-(methylsulfonyl)-1H-indole-6-carboxamide]",0.189,0.27,8.37
"Cn1cc(-c2cnc(OCC3CC3)c(Cl)c2)c2ccc(C(=O)NS(=O)(=O)C3CC3)cc21 [Example 35, 3-(5-Chloro-6-(cyclopropylmethoxy)pyridin-3-yl)-N-(cyclopropylsulfonyl)-1-methyl-1H-indole-6-carboxamide]",0.086,0.052,15.1
"CCS(=O)(=O)NC(=O)c1ccc2c(-c3cnc(OCC(C)C)c(Cl)c3)cn(C)c2c1 [Example 36, 3-(5-Chloro-6-isobutoxypyridin-3-yl)-N-(ethylsulfonyl)-1-methyl-1H-indole-6-carboxamide]",0.154,0.038,5.67
"CC(C)COc1ncc(-c2cn(C)c3cc(C(=O)NS(=O)(=O)C(C)C)ccc23)cc1Cl [Example 37, 3-(5-Chloro-6-isobutoxypyridin-3-yl)-N-(isopropylsulfonyl)-1-methyl-1H-indole-6-carboxamide]",0.458,0.207,14
"CC(C)COc1ncc(-c2cn(C)c3cc(C(=O)NS(=O)(=O)C(C)(C)C)ccc23)cc1Cl [Example 38, N-(tert-butylsulfonyl)-3-(5-chloro-6-isobutoxypyridin-3-yl)-1-methyl-1H-indole-6-carboxamide]",1.3,0.156,21.9
"CC(C)COc1ncc(-c2nn(C)c3cc(C(=O)NS(C)(=O)=O)ccc23)cc1Cl [Example 39, 3-(5-Chloro-6-isobutoxypyridin-3-yl)-1-methyl-N-(methylsulfonyl)-1H-indazole-6-carboxamide]",0.066,0.067,6.51
"CC(C)COc1ncc(-c2c3ccc(C(=O)NS(C)(=O)=O)cc3nn2C)cc1Cl [Example 40, 3-(5-Chloro-6-isobutoxypyridin-3-yl)-2-methyl-N-(methylsulfonyl)-2H-indazole-6-carboxamide]",0.787,1.99,16.7
"CC(C)COc1ncc(-c2c3ccc(C(=O)NS(=O)(=O)C4CC4)cc3nn2C)cc1Cl [Example 41, 3-(5-Chloro-6-isobutoxypyridin-3-yl)-N-(cyclopropylsulfonyl)-2-methyl-2H-indazole-6-carboxamide]",0.195,0.673,11.3
